According to publication PMC9090415, “Discovery of small molecule inhibitors of Plasmodium falciparum apicoplast DNA polymerase” (Journal of Enzyme Inhibition and Medicinal Chemistry, 2022):

Target: P. falciparum apicoplast DNA polymerase (Pf-apPOL) (Plasmodium falciparum, UniProt Q8ILY1)
Assay: Fluorescence-based high-throughput DNA polymerase assay (molecular beacon), primary screen and dose-response
Type: biochemical
Method: The HT assay employs a molecular beacon, a stem-loop DNA template with a Cy3 dye and the Black Hole Quencher on the 3′ and 5′ ends of the DNA, respectively. Pf-apPOL concentration is based on a calculated absorptivity of ε280 = 56750 M^−1 cm^−1. Reactions were carried out at 25 °C, using Corning 3575 […] (well-volume, 20 µL). Assays testing for compound inhibition composed of reaction buffer (pH 7.9 in 50 mM potassium acetate, 20 mM Tris-acetate and 10 mM magnesium acetate), Pf-apPOL (20 nM), DNA substrate (20 nM), dNTPs (6 µM), and compound (10 µM in DMSO). The DNA and nucleotide substrates (dNTPs) were at concentrations of 20 nM and 6 µM, respectively, in the assay. Pf-apPOL was incubated in the reaction buffer with dNTPs and the compound of interest (10 µM, in the assay) at 25 °C for 10 min. The DNA substrate was then added and the reaction was allowed to proceed for 90 min at 25 °C.
Each assay plate contained 16 negative controls (no Pf-apPOL, DMSO present) and 16 positive controls (Pf-apPOL present, no DMSO). The fluorescence of each well was determined using a BioTek Synergy Neo fluorescence plate reader using excitation and emission wavelengths of 555 and 570 nm, respectively.
In the above, Min is the average of fluorescence emission of the negative controls (substrate only), Max the average fluorescence emission from the positive controls (enzyme + substrate), and Test the emission from the assays in the presence of compounds (enzyme + compound + substrates). […] […] The IC50 of each compound was determined using Equation (2): (2) IC50= Vmax/(1+ (I/IC50)^n)
In the above, n measures cooperativity, with n > 1 indicating synergistic binding of more than a single molecule of the compound.
To identify apPOL inhibitors we utilised our previously developed high-throughput DNA polymerase assay. The HT assay is based on a molecular beacon DNA template that forms a stem-loop with a Cy3 dye and the Black Hole Quencher on the 3′ and 5′ ends of the DNA, respectively. DNA polymerase activity extends an annealed primer through the stem region, displacing the fluorophore from the quencher, thereby increasing its fluorescence (Figure 1(A)). The assay accurately recapitulates the kinetic behaviour of apPOL, as measured through more conventional low-throughput gel-based assays. The Z′ factor for the assay described here was 0.9 across all plates (data not shown).
Figure 1. High-throughput screening. (A) The fluorescent-based DNA polymerase assay used to screen the compound libraries. The DNA template strand is a hairpin loop with a primer annealed to the loop. The 3’ end of the primer is 11 bases away from the 6 bp duplex. Strand displacement activity of the DNA polymerase separates the Cy3 dye from the Black hole quencher leading to an increase in fluorescent signal. (B) The high-throughput assay workflow. The DNA polymerase is incubated with […] compound for 10 min prior to addition of the hairpin substrate. The reaction is quenched at 3 different time points and the fluorescent signal is measured and % inhibition is determined using the provided equation.

Sequence of P. falciparum apicoplast DNA polymerase (Pf-apPOL) (Q8ILY1 entry or part of it): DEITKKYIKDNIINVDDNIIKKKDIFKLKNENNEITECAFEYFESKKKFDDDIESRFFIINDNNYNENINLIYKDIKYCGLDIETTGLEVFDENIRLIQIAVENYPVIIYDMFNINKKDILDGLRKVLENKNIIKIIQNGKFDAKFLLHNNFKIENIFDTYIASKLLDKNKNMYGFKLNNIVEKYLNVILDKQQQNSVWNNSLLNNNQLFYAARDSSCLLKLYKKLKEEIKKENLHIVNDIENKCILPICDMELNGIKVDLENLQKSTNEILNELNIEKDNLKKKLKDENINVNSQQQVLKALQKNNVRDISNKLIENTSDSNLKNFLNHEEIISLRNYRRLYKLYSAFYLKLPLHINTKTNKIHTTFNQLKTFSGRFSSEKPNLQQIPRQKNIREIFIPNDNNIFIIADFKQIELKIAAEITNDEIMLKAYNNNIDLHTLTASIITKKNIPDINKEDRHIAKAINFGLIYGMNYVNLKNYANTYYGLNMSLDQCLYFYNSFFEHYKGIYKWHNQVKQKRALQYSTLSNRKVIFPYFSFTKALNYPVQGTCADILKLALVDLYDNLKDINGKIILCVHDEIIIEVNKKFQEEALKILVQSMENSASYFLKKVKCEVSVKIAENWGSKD

## CO/N=C(\C(=O)N[C@@H]1C(=O)N2C(C(=O)[O-])=C(CSc3nc(=O)c([O-])nn3C)CSC12)c1csc(N)n1.[Na+].[Na+] (some centres unmarked) [Molecule 83, CO/N=C(/c1csc(n1)N)\C(=O)N[C@@H]1C(=O)N2C1SCC(=C2C(=O)[O-])CSc1nc(=O)c(nn1C)[O-].[Na+].[Na+]]
186 hits, value of the hit list (primary screen); unit not given; 90 min, 10 µM
  DNA Pol: 48
DRC-1; 10'; concentration 2.5
  % inhibition Apo pol 10': 18.7657%
DRC-1; 10'; concentration 5
  % inhibition Apo pol 10': 26.0446%
DRC-1; 10'; concentration 10
  % inhibition Apo pol 10': 38.6298%
DRC-1; 10'; concentration 20
  % inhibition Apo pol 10': 50.9335%
DRC-1; 10'; concentration 40
  % inhibition Apo pol 10': 64.2256%
DRC-1; 10'; concentration 80
  % inhibition Apo pol 10': 74.1492%
DRC-1; 90'; concentration 2.5
  % inhibition Apol 90': -5.899%
DRC-1; 90'; concentration 5
  % inhibition Apol 90': -4.018%
DRC-1; 90'; concentration 10
  % inhibition Apol 90': 2.565%
DRC-1; 90'; concentration 20
  % inhibition Apol 90': 10.9979%
DRC-1; 90'; concentration 40
  % inhibition Apol 90': 25.6327%
DRC-1; 90'; concentration 80
  % inhibition Apol 90': 43.9979%
DRC-1; 180'; concentration 2.5
  % inhibition apPOL 180': -15.6799%
DRC-1; 180'; concentration 5
  % inhibition apPOL 180': -16.0147%
DRC-1; 180'; concentration 10
  % inhibition apPOL 180': -9.688%
DRC-1; 180'; concentration 20
  % inhibition apPOL 180': -2.55%
DRC-1; 180'; concentration 40
  % inhibition apPOL 180': 10.5527%
DRC-1; 180'; concentration 80
  % inhibition apPOL 180': 28.4912%
DRC-2, 5', concentration 2.5
  % inhibition Apo pol 5': 1.37%
DRC-2, 5', concentration 5
  % inhibition Apo pol 5': 6%
DRC-2, 5', concentration 10
  % inhibition Apo pol 5': 18%
DRC-2, 5', concentration 20
  % inhibition Apo pol 5': 30%
DRC-2, 5', concentration 40
  % inhibition Apo pol 5': 42%
DRC-2, 5', concentration 80
  % inhibition Apo pol 5': 54%
DRC-2, 40', concentration 2.5
  % inhibition Apol 40': -6%
DRC-2, 40', concentration 5
  % inhibition Apol 40': -1.68%
DRC-2, 40', concentration 10
  % inhibition Apol 40': 9%
DRC-2, 40', concentration 20
  % inhibition Apol 40': 20%
DRC-2, 40', concentration 40
  % inhibition Apol 40': 37%
DRC-2, 40', concentration 80
  % inhibition Apol 40': 59%
DRC-2, 90', concentration 2.5
  % inhibition ApPOL 90': -8%
DRC-2, 90', concentration 5
  % inhibition ApPOL 90': -7%
DRC-2, 90', concentration 10
  % inhibition ApPOL 90': 1.87%
DRC-2, 90', concentration 20
  % inhibition ApPOL 90': 12%
DRC-2, 90', concentration 40
  % inhibition ApPOL 90': 30%
DRC-2, 90', concentration 80
  % inhibition ApPOL 90': 56%
DRC-2, 180', concentration 2.5
  % inhibition apPOL 180': -10%
DRC-2, 180', concentration 5
  % inhibition apPOL 180': -12%
DRC-2, 180', concentration 10
  % inhibition apPOL 180': -7%
DRC-2, 180', concentration 20
  % inhibition apPOL 180': 5%
DRC-2, 180', concentration 40
  % inhibition apPOL 180': 21%
DRC-2, 180', concentration 80
  % inhibition apPOL 180': 48%
DRC-2; 5'; concentration 20
  % inhibition Apo pol 5': 30%
DRC-2; 90'; concentration 5
  % inhibition ApPOL 90': -7%
DRC-2; 90'; concentration 40
  % inhibition ApPOL 90': 30%
DRC-2; 180'; concentration 10
  % inhibition apPOL 180': -7%
Primary screen value, 'DNA Pol' only; 90 min, 10 µM
  DNA Pol: 48

## CC1=NNC(=O)C1Oc1ccc(Cl)cc1Cl (centres unmarked) [KU0265591]
'DNA Pol'; screening value, unit not given; 90 min, 10 µM
  DNA Pol: 75
DRC-1; 10'; concentration 2.5
  % inhibition Apo pol 10': 8.365%
DRC-1; 10'; concentration 5
  % inhibition Apo pol 10': 10.5259%
DRC-1; 10'; concentration 10
  % inhibition Apo pol 10': 21.6096%
DRC-1; 10'; concentration 20
  % inhibition Apo pol 10': 39.4478%
DRC-1; 10'; concentration 40
  % inhibition Apo pol 10': 60.3328%
DRC-1; 10'; concentration 80
  % inhibition Apo pol 10': 74.8276%
DRC-1; 90'; concentration 2.5
  % inhibition Apol 90': -1.52%
DRC-1; 90'; concentration 5
  % inhibition Apol 90': -3.728%
DRC-1; 90'; concentration 10
  % inhibition Apol 90': 5.588%
DRC-1; 90'; concentration 20
  % inhibition Apol 90': 19.9514%
DRC-1; 90'; concentration 40
  % inhibition Apol 90': 37.9721%
DRC-1; 90'; concentration 80
  % inhibition Apol 90': 53.1645%
DRC-1; 180'; concentration 2.5
  % inhibition apPOL 180': -5.173%
DRC-1; 180'; concentration 5
  % inhibition apPOL 180': -9.633%
DRC-1; 180'; concentration 10
  % inhibition apPOL 180': -1.598%
DRC-1; 180'; concentration 20
  % inhibition apPOL 180': 9.166%
DRC-1; 180'; concentration 40
  % inhibition apPOL 180': 27.6068%
DRC-1; 180'; concentration 80
  % inhibition apPOL 180': 41.8944%
DRC-2, 5', concentration 2.5
  % inhibition Apo pol 5': 10%
DRC-2, 5', concentration 5
  % inhibition Apo pol 5': 12%
DRC-2, 5', concentration 10
  % inhibition Apo pol 5': 24%
DRC-2, 5', concentration 20
  % inhibition Apo pol 5': 32%
DRC-2, 5', concentration 40
  % inhibition Apo pol 5': 45%
DRC-2, 5', concentration 80
  % inhibition Apo pol 5': 52%
DRC-2, 40', concentration 2.5
  % inhibition Apol 40': 5%
DRC-2, 40', concentration 5
  % inhibition Apol 40': 4.74%
DRC-2, 40', concentration 10
  % inhibition Apol 40': 15%
DRC-2, 40', concentration 20
  % inhibition Apol 40': 26%
DRC-2, 40', concentration 40
  % inhibition Apol 40': 42%
DRC-2, 40', concentration 80
  % inhibition Apol 40': 53%
DRC-2, 90', concentration 2.5
  % inhibition ApPOL 90': 1.69%
DRC-2, 90', concentration 5
  % inhibition ApPOL 90': -0.164%
DRC-2, 90', concentration 10
  % inhibition ApPOL 90': 9%
DRC-2, 90', concentration 20
  % inhibition ApPOL 90': 20%
DRC-2, 90', concentration 40
  % inhibition ApPOL 90': 37%
DRC-2, 90', concentration 80
  % inhibition ApPOL 90': 51%
DRC-2, 180', concentration 2.5
  % inhibition apPOL 180': -3.43%
DRC-2, 180', concentration 5
  % inhibition apPOL 180': -6%
DRC-2, 180', concentration 10
  % inhibition apPOL 180': -1.09%
DRC-2, 180', concentration 20
  % inhibition apPOL 180': 9%
DRC-2, 180', concentration 40
  % inhibition apPOL 180': 26%
DRC-2, 180', concentration 80
  % inhibition apPOL 180': 42%
Conc 10 (unit not given); 90'; DRC-2
  % inhibition ApPOL 90': 9%
Conc 20 (unit not given); 40'; DRC-2
  % inhibition Apol 40': 26%
Conc 20 (unit not given); 180'; DRC-2
  % inhibition apPOL 180': 9%
Conc 40 (unit not given); 40'; DRC-2
  % inhibition Apol 40': 42%
Conc 40 (unit not given); 180'; DRC-2
  % inhibition apPOL 180': 26%
Conc 80 (unit not given); 180'; DRC-2
  % inhibition apPOL 180': 42%
Primary screen hit value, DNA Pol (186 hits); 90 min, 10 µM
  DNA Pol: 75
